Experimental data from patent publication US20240158446A1, “CYCLIC COMPOUND HAVING SELECTIVE INHIBITORY ACTION ON KRAS OVER HRAS AND NRAS” (CHUGAI SEIYAKU KABUSHIKI KAISHA, priority 2021, published 2024).

Assays:
[1] = tested on: human lung cancer strain NCI-H441; assay: cells; conditions: NCI-H441, 96 h, read-out: NCI-H441 IC50 (nM), NCI-H441 cell proliferation, 4 days, CellTiter-Glo;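 further: cell proliferation inhibition after four days measured by CellTiter-Glo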
[2] = target: GDP-bound HRAS wild-type protein (Homo sapiens, UniProt P01112); assay: Binding to HRAS by surface plasmon resonance (SPR), Single Cycle Kinetics; conditions: ratio of KD for GDP-bound HRAS wild-type protein to KD for KRAS, SPR
GDP-bound HRAS wild-type protein, sequence (P01112 whole entry): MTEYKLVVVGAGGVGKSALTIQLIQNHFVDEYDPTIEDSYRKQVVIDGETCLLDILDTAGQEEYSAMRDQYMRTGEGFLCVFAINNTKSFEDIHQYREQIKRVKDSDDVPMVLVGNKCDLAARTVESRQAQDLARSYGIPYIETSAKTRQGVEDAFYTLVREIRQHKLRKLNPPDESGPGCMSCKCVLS

[3] = target: GDP-bound NRAS wild-type protein (Homo sapiens, UniProt P01111); assay: Binding to NRAS by surface plasmon resonance (SPR), Single Cycle Kinetics; conditions: ratio of KD for GDP-bound NRAS wild-type protein to KD for KRAS, SPR
GDP-bound NRAS wild-type protein, sequence (P01111 whole entry): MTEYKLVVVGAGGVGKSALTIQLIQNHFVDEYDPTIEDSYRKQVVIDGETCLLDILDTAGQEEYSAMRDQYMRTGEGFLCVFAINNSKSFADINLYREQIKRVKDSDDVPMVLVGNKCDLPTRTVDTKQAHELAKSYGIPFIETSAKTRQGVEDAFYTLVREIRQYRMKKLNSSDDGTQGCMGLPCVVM

| SMILES | IC50 [1] [nM] | HRAS/KRAS (KD ratio) [2] | NRAS/KRAS (KD ratio) [3] |
| --- | --- | --- | --- |
| CC[C@H](C)[C@@H]1NC(=O)[C@H](CC2CC2)N(C)C(=O)C[C@@H](C(=O)N(C)C)N(C)C(=O)[C@H](C2CCCC2)N(C)C(=O)C2(CCC2)N(C)C(=O)[C@@H]2C[C@@H](C)CN2C(=O)[C@H](CCc2cc(F)c(C(F)(F)F)c(F)c2)NC(=O)CN(C)C(=O)[C@H](Cc2ccc(C)cc2)N2CC/C=C\C[C@@H](C2=O)N(C)C(=O)[C@@H]2CCCN2C1=O [PP1801] | 13 | B (a compound having 3 or more and less than 10 is denoted as B) | A (a compound having 10 or more and less than 20 is denoted as A) |
| CC[C@H](C)[C@@H]1NC(=O)[C@H](CC2CCC2)N(C)C(=O)C[C@@H](C(=O)N(C)C)N(C)C(=O)[C@H](C2CCCC2)N(C)C(=O)C2(CCC2)N(C)C(=O)[C@@H]2C[C@@H](C)CN2C(=O)[C@H](CCc2cc(F)c(C(F)(F)F)c(F)c2)NC(=O)CN(C)C(=O)[C@H](Cc2ccc(C)cc2)N2CC/C=C\C[C@@H](C2=O)N(C)C(=O)CN(C)C1=O [PP1803] | 7.6 | B (a compound having 3 or more and less than 10 is denoted as B) | A (a compound having 10 or more and less than 20 is denoted as A) |
| CCCN1C(=O)C[C@@H](C(=O)N(C)C)N(C)C(=O)[C@H](C2CCCC2)N(C)C(=O)C2(CCC2)NC(=O)[C@@H]2C[C@@H](OCC)CN2C(=O)[C@H](CCc2cc(F)c(C(F)(F)F)c(F)c2)NC(=O)CN(C)C(=O)[C@H](Cc2ccc(C(F)(F)F)cc2)N2CC/C=C\C[C@@H](C2=O)N(C)C(=O)CN(C)C(=O)[C@H]([C@@H](C)CC)NC(=O)[C@@H]1CC(C)C [PP1825] | 8 | A (a compound having 10 or more and less than 20 is denoted as A) | A (a compound having 10 or more and less than 20 is denoted as A) |
| CCC[C@H]1C(=O)N[C@@H]([C@@H](C)CC)C(=O)N(C)CC(=O)N(C)[C@H]2C/C=C\CCN(C2=O)[C@@H](Cc2ccc(C)cc2)C(=O)N(C)CC(=O)N[C@@H](CCc2ccc(C(F)(F)F)c(OC)c2)C(=O)N2C[C@@H](C)C[C@H]2C(=O)NC2(CCC2)C(=O)N(C)[C@@H](C2CCCC2)C(=O)N(C)[C@H](C(=O)N(C)CC)CC(=O)N1C [PP1840] | 26.8 | B (a compound having 3 or more and less than 10 is denoted as B) | A (a compound having 10 or more and less than 20 is denoted as A) |
| CC[C@H](C)[C@@H]1NC(=O)[C@H](CC)N(C)C(=O)C[C@@H](C(=O)N(C)C)N(C)C(=O)[C@H](C2CCCC2)N(C)C(=O)C2(CC(C)(C)C2)NC(=O)[C@@H]2C[C@@H](C)CN2C(=O)[C@H](CCc2ccc(C(F)(F)F)c(Cl)c2)NC(=O)CN(C)C(=O)[C@H](Cc2ccc(C)cc2)N2CC/C=C\C[C@@H](C2=O)N(C)C(=O)CN(C)C1=O [PP1846] | 9.8 | B (a compound having 3 or more and less than 10 is denoted as B) | A (a compound having 10 or more and less than 20 is denoted as A) |
| CC[C@H](C)[C@@H]1NC(=O)[C@H](CC(C)C)N(C)C(=O)C[C@@H](C(=O)N(CC)CC)N(C)C(=O)[C@H](C2CCCC2)N(C)C(=O)C2(CCC2)NC(=O)[C@@H]2C[C@@H](C)CN2C(=O)[C@H](CCc2ccc(C(F)(F)F)c(OC)c2)NC(=O)CN(C)C(=O)[C@H](Cc2ccc(C)cc2)N2CC/C=C\C[C@@H](C2=O)N(C)C(=O)CN(C)C1=O [PP1849] | 37.1 | A (a compound having 10 or more and less than 20 is denoted as A) | A (a compound having 10 or more and less than 20 is denoted as A) |
| CC[C@H](C)[C@@H]1NC(=O)[C@H](CC(C)C)N(C)C(=O)C[C@@H](C(=O)N(C)C)N(C)C(=O)[C@H](C2CCCC2)N(C)C(=O)C2(CCC2)NC(=O)[C@@H]2C[C@H](C)CN2C(=O)[C@H](CCc2ccc(C(F)(F)F)c(Cl)c2)NC(=O)CN(C)C(=O)[C@H](Cc2ccc(C)cc2)N2CC/C=C\C[C@@H](C2=O)N(C)C(=O)CN(C)C1=O [PP1852] | 6 | B (a compound having 3 or more and less than 10 is denoted as B) | A (a compound having 10 or more and less than 20 is denoted as A) |
| CCC[C@H]1C(=O)N[C@@H]([C@@H](C)CC)C(=O)N(C)CC(=O)N(C)[C@H]2C/C=C\CCN(C2=O)[C@@H](Cc2ccc(C)cc2)C(=O)N(C)CC(=O)N[C@@H](CCc2ccc(C(F)(F)F)c(OC)c2)C(=O)N2C[C@@H](C)C[C@H]2C(=O)NC2(CCC2)C(=O)N(C)[C@@H](C2CCCC2)C(=O)N(C)[C@H](C(=O)N(C)C)CC(=O)N1C [PP1857] | 5 | B (a compound having 3 or more and less than 10 is denoted as B) | A (a compound having 10 or more and less than 20 is denoted as A) |
| CCC[C@H]1C(=O)N[C@@H]([C@@H](C)CC)C(=O)N(C)CC(=O)N(C)[C@H]2C/C=C\CCN(C2=O)[C@@H](Cc2ccc(C)cc2)C(=O)N(C)CC(=O)N[C@@H](CCc2ccc(C(F)(F)F)c(OC)c2)C(=O)N2C[C@H](C)C[C@H]2C(=O)NC2(CCC2)C(=O)N(C)[C@@H](C2CCCC2)C(=O)N(C)[C@H](C(=O)N(C)C)CC(=O)N1C [PP1859] | 28.8 | A (a compound having 10 or more and less than 20 is denoted as A) | A (a compound having 10 or more and less than 20 is denoted as A) |
| CCC[C@H]1C(=O)N[C@@H]([C@@H](C)CC)C(=O)N(C)CC(=O)N(C)[C@H]2C/C=C\CCN(C2=O)[C@@H](Cc2ccc(C)cc2)C(=O)N(C)CC(=O)N[C@@H](CCc2cc(F)c(C(F)(F)F)c(F)c2)C(=O)N2C[C@@H](C)C[C@H]2C(=O)NC2(CCC2)C(=O)N(C)[C@@H](C2CCCC2)C(=O)N(C)[C@H](C(=O)N(C)CC)CC(=O)N1C [PP1860] | 10.3 | A (a compound having 10 or more and less than 20 is denoted as A) | A (a compound having 10 or more and less than 20 is denoted as A) |

More lines, main results first:

| IC50 [1] [nM] | SMILES | HRAS/KRAS (KD ratio) [2] | NRAS/KRAS (KD ratio) [3] |
| --- | --- | --- | --- |
| 25.7 | CC[C@H](C)[C@@H]1NC(=O)[C@H](CC2CC2)N(C)C(=O)C[C@@H](C(=O)N(C)C)N(C)C(=O)[C@H](C2CCCC2)N(C)C(=O)C2(CCC2)NC(=O)[C@@H]2C[C@H](C)CN2C(=O)[C@H](CCc2ccc(C(F)(F)F)c(OC)c2)NC(=O)CN(C)C(=O)[C@H](Cc2ccc(C)cc2)N2CC/C=C\C[C@@H](C2=O)N(C)C(=O)CN(C)C1=O [PP1861] | B (a compound having 3 or more and less than 10 is denoted as B) | A (a compound having 10 or more and less than 20 is denoted as A) |
| 22.2 | CCC[C@H]1C(=O)N[C@@H]([C@@H](C)CC)C(=O)N(C)CC(=O)N(C)[C@H]2C/C=C\CCN(C2=O)[C@@H](Cc2ccc(C)cc2)C(=O)N(C)CC(=O)N[C@@H](CCc2cc(F)c(C(F)(F)F)c(F)c2)C(=O)N2C[C@H](C)C[C@H]2C(=O)NC2(CCC2)C(=O)N(C)[C@@H](C2CCCC2)C(=O)N(C)[C@H](C(=O)N(C)CC)CC(=O)N1C [PP1862] | A (a compound having 10 or more and less than 20 is denoted as A) | A (a compound having 10 or more and less than 20 is denoted as A) |
| 36 | CC[C@H](C)[C@@H]1NC(=O)[C@H](CC(C)C)N(C)C(=O)C[C@@H](C(=O)N(C)C)N(C)C(=O)[C@H](C2CCCC2)N(C)C(=O)C2(CCC2)NC(=O)[C@@H]2C[C@H](C)CN2C(=O)[C@H](CCc2ccc(C(F)(F)F)c(OC)c2)NC(=O)CN(C)C(=O)[C@H](Cc2ccc(C)cc2)N2CC/C=C\C[C@@H](C2=O)N(C)C(=O)CN(C)C1=O [PP1865] | B (a compound having 3 or more and less than 10 is denoted as B) | A (a compound having 10 or more and less than 20 is denoted as A) |
| 3.5 | CCC[C@H]1C(=O)N[C@@H]([C@@H](C)CC)C(=O)N(C)CC(=O)N(C)[C@H]2C/C=C\CCN(C2=O)[C@@H](Cc2ccc(C)cc2)C(=O)N(C)CC(=O)N[C@@H](CCc2ccc(C(F)(F)F)c(OC)c2)C(=O)N2C[C@@H](C)C[C@H]2C(=O)NC2(CC(C)(C)C2)C(=O)N(C)[C@@H](C2CCCC2)C(=O)N(C)[C@H](C(=O)N(C)C)CC(=O)N1C [PP1888] | B (a compound having 3 or more and less than 10 is denoted as B) | A (a compound having 10 or more and less than 20 is denoted as A) |
| 3.6 | CCC[C@H]1C(=O)N[C@@H]([C@@H](C)CC)C(=O)N(C)CC(=O)N(C)[C@H]2C/C=C\CCN(C2=O)[C@@H](Cc2ccc(C)cc2)C(=O)N(C)CC(=O)N[C@@H](CCc2ccc(C(F)(F)F)c(OC)c2)C(=O)N2C[C@H](C)C[C@H]2C(=O)NC2(CC(C)(C)C2)C(=O)N(C)[C@@H](C2CCCC2)C(=O)N(C)[C@H](C(=O)N(C)C)CC(=O)N1C [PP1890] | B (a compound having 3 or more and less than 10 is denoted as B) | A (a compound having 10 or more and less than 20 is denoted as A) |
| 15.9 | CCC[C@H]1C(=O)N[C@@H]([C@@H](C)CC)C(=O)N(C)CC(=O)N(C)[C@H]2C/C=C\CCN(C2=O)[C@@H](Cc2ccc(C)cc2)C(=O)N(C)CC(=O)N[C@@H](CCc2ccc(C(F)(F)F)c(Cl)c2)C(=O)N2C[C@H](C)C[C@H]2C(=O)NC2(CC(C)(C)C2)C(=O)N(C)[C@@H](C2CCCC2)C(=O)N(C)[C@H](C(=O)N(C)CC)CC(=O)N1C [PP1894] | A (a compound having 10 or more and less than 20 is denoted as A) | A (a compound having 10 or more and less than 20 is denoted as A) |
| 15.1 | CC[C@H](C)[C@@H]1NC(=O)[C@H](CC2CC2)N(C)C(=O)C[C@@H](C(=O)N(C)CC)N(C)C(=O)[C@H](C2CCCC2)N(C)C(=O)C2(CC(C)(C)C2)NC(=O)[C@@H]2C[C@H](C)CN2C(=O)[C@H](CCc2ccc(C(F)(F)F)c(OC)c2)NC(=O)CN(C)C(=O)[C@H](Cc2ccc(C)cc2)N2CC/C=C\C[C@@H](C2=O)N(C)C(=O)CN(C)C1=O [PP1899] | B (a compound having 3 or more and less than 10 is denoted as B) | A (a compound having 10 or more and less than 20 is denoted as A) |
